Test results published in patent US20140025310A1, “METHOD FOR DETERMINING THE EFFICACY OF A COMBINATION THERAPY” (priority 2009, published 2014).

How the values were obtained:
[1] = tested on: patient's virus; test: Susceptibility score of the patient's virus to a drug (% activity from clinical cut-off models); parameters: species or system HIV-1; details: 1 = fully sensitive, 0 = fully resistant
Description: Interpretation algorithms provide a resistance call for each available HIV drug. Often this is a three way classification i.e. sensitive (a score of 1), intermediate resistant (a score of 0.5) or resistant (a score of 0). For VircoType (WO 01/79540) the interpretation is for instance based on a statistical model, leading to the definition of so called clinical cut-offs (CCO), that predicts the % activity of a drug (i.e. the susceptibility score) as a function of fold change at the start of the regimen. The % activity left was calculated by dividing the predicted viral load change for the patients' virus with a certain resistance profile by the predicted viral load for a wild-type virus. This is an ordinal value that varies between 0% (or a score of 0) and 100% (or a score of 1). Based on these values, clinical cutoffs (phenotypic threshold values) were derived to classify a virus sample into maximal response, reduced response and minimal response as described in WO 2005/086061.
(§1) Therefore, statistical models were applied to handle these differences. […] E.g.

[2] = tested on: HIV-1; details: difference in viral load response (log scale) vs ritonavir boosted lopinavir after 8 weeks of stable treatment; double robust estimation
Description: as §1

Molecule | susceptibility score ([1]; Patient 1 virus) | susceptibility score ([1]; Patient 2 virus) | Weight (drug weight) [2]
CC(C)OC(=O)OCOP(=O)(CO[C@H](C)Cn1cnc2c(N)ncnc21)OCOC(=O)OC(C)C.O=C(O)/C=C/C(=O)O [TDF] | 1 | 1 | –
O=c1[nH]cnc2c1ncn2[C@H]1CC[C@@H](CO)O1 [DDI] | 1 | – | –
lopinavir [LPV/r] | 0.24 | – | 0
atazanavir [ATV/r] | – | 1 | −0.02
O=C1Nc2ccc(Cl)cc2[C@@](C#CC2CC2)(C(F)(F)F)O1 [EFV] | – | fully active | –
